Results as given in US20230159569A1, “DUAL HDAC6/PROTEASOME INHIBITORS, AND METHODS OF USE THEREOF” (UNIVERSITY OF MARYLAND, BALTIMORE, priority 2021, published 2023).

Experiments:
[1] = target: T1, HDAC6 (Homo sapiens, UniProt Q9UBN7); assay: HDAC activity assay (microfluidics mobility shift), HDAC6; format: biochemical; conditions: for IC50 / HDAC1/HDAC6 (HDAC1 IC50/HDAC6 IC50, selectivity for HDAC6): covalent dual inhibitors; for inhibition at 1 µM: compound concentration 1 μM, non-covalent dual inhibitors
T1 sequence (Q9UBN7 1-1215): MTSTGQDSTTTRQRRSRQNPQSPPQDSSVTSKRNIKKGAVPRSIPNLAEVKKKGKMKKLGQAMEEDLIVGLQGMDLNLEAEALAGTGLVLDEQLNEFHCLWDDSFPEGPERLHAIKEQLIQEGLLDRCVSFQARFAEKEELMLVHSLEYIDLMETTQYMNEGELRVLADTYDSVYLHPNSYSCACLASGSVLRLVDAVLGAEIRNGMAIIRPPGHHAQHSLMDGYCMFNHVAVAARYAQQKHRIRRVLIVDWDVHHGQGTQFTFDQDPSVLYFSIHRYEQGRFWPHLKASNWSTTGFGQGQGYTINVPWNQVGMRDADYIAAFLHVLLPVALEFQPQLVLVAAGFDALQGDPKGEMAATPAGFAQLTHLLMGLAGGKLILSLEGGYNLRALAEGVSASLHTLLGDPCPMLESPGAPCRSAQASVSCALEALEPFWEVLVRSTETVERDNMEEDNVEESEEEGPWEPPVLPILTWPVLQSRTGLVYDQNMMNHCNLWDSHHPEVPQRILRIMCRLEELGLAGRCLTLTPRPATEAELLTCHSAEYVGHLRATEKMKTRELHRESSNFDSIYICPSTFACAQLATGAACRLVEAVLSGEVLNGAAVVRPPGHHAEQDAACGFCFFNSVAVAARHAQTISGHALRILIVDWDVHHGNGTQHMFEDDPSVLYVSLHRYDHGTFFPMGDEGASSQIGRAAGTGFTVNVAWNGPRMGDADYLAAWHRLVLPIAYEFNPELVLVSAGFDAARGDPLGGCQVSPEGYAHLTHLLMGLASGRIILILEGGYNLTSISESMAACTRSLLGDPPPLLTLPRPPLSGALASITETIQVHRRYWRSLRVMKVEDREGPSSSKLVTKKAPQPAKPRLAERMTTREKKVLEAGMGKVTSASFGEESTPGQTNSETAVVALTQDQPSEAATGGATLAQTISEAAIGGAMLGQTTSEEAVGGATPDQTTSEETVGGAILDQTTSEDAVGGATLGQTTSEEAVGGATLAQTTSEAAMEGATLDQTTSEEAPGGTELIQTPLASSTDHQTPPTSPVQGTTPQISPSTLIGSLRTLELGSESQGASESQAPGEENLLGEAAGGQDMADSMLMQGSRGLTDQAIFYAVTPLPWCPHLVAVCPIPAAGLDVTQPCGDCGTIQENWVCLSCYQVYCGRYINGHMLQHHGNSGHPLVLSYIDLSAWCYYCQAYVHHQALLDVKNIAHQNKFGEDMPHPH
Experimental: (§1) HDAC ACTIVITY ASSAYS: HDAC activity is measured using a microfluidics mobility shift platform. A fluorescently labeled substrate is reacted with the enzyme along with addition of test compounds followed by reading through microfluidic chips. Enzyme activity is determined through quantitative comparison of the […] that results from enzymatic activity.
(§2) The concentration of each non-covalent inhibitor compound tested in this study was 1 μM.

[2] = target: HDAC1 (Homo sapiens, UniProt Q13547); assay: HDAC activity assay (microfluidics mobility shift), HDAC1; format: biochemical; conditions: compound concentration 1 μM; non-covalent dual inhibitors
HDAC1, sequence (Q13547 whole entry): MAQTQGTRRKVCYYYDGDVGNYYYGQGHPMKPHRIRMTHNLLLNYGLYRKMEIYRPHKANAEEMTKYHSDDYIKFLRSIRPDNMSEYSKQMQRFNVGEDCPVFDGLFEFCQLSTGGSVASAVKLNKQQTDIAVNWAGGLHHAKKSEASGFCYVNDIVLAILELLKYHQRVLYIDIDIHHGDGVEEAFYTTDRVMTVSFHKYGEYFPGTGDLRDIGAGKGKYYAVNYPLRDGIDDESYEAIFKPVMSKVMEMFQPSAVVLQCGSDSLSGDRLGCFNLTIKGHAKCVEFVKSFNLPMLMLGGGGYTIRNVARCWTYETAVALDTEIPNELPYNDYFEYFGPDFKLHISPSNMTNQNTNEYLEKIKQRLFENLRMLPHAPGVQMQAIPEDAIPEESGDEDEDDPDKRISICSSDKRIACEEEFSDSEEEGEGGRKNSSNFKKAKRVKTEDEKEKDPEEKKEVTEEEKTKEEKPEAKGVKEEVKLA
Experimental: as §1, §2

Structure (SMILES)	IC50 [1] [nM]	inhibition at 1 µM [1] [%]	inhibition at 1 µM [2] [%]	HDAC1/HDAC6 (HDAC1 IC50/HDAC6 IC50, selectivity for HDAC6) [1]	potency and selectivity for HDAC6 ([1]; FIG. 11, fold improvement over HDAC1 inhibition)
CC(C)C[C@H](NC(=O)[C@H](Cc1ccccc1)NC(=O)c1ccc(C(=O)NOC2CCCCO2)cc1)B1OC2C[C@H]3C[C@H](C3(C)C)[C@@]2(C)O1 (stereo partly drawn) [AMC-2-248]	> 30000				
C[C@H](NC(=O)[C@H](CC(=O)NCC(C)(C)C)NC(=O)C(=O)c1c[nH]c2ccccc12)C(=O)NCc1ccc(F)cc1F [AMC-2-052]		59	41		
COC(=O)CCCCCCC(=O)N[C@@H](CC(=O)NCC(C)(C)C)C(=O)N[C@@H](C)C(=O)NCc1ccc(F)cc1F [AMC-2-198]		8	1		
C[C@H](NC(=O)[C@H](CC(=O)NCC(C)(C)C)NC(=O)CCCCCCC(=O)NO)C(=O)NCc1ccc(F)cc1F [AMC-2-067]		86	74		
COC(=O)c1ccc(C(=O)N[C@@H](CC(=O)NCC(C)(C)C)C(=O)N[C@@H](C)C(=O)NCc2ccc(F)cc2F)cc1 [AMC-2-152]		18	3		
CCNC(=O)ONC(=O)c1ccc(C(=O)N[C@@H](Cc2ccccc2)C(=O)N[C@@H](CC(C)C)B2OC3C[C@H]4C[C@H](C4(C)C)[C@@]3(C)O2)cc1 (stereo partly drawn) [AMC-3-019]	8120			>3.69	
C[C@H](NC(=O)[C@H](CC(=O)NCC(C)(C)C)NC(=O)CCCCCCC(=O)O)C(=O)NCc1ccc(F)cc1F [AMC-2-204]		8	3		
CC(C)C[C@H](NC(=O)[C@H](Cc1ccccc1)NC(=O)c1ccc(C(=O)NO)cc1)B1OC2C[C@H]3C[C@H](C3(C)C)[C@@]2(C)O1 (stereo partly drawn) [AMC-3-017]	198			14.3	
C[C@H](NC(=O)[C@H](CC(=O)NCC(C)(C)C)NC(=O)c1ccc(C(=O)O)cc1)C(=O)NCc1ccc(F)cc1F [AMC-2-225]		4	-3		
C[C@H](NC(=O)[C@H](CC(=O)NCC(C)(C)C)NC(=O)CCC(=O)Nc1ccc(C(=O)NO)cc1)C(=O)NCc1ccc(F)cc1F [AMC-2-036]		95	61		highly potent
C[C@H](NC(=O)[C@H](CC(=O)NCC(C)(C)C)NC(=O)c1ccc(C(=O)Nc2ccccc2N)cc1)C(=O)NCc1ccc(F)cc1F [AMC-2-091]		13	65		

Now from value to compound:

IC50 [1] [nM]	inhibition at 1 µM [1] [%]	inhibition at 1 µM [2] [%]	HDAC1/HDAC6 (HDAC1 IC50/HDAC6 IC50, selectivity for HDAC6) [1]	potency and selectivity for HDAC6 ([1]; FIG. 11, fold improvement over HDAC1 inhibition)	Structure (SMILES)
258			20.4		CC(C)C[C@H](NC(=O)CNC(=O)c1ccc(C(=O)NO)cc1)B1OC2C[C@H]3C[C@H](C3(C)C)[C@@]2(C)O1 (stereo partly drawn) [AMC-3-031]
6320			4.75		CC(C)C[C@H](NC(=O)[C@H](Cc1ccccc1)NC(=O)c1ccc(C(=O)NOC(=O)NCc2ccccc2)cc1)B1OC2C[C@H]3C[C@H](C3(C)C)[C@@]2(C)O1 (stereo partly drawn) [AMC-3-033]
1150			2.30		CCNC(=O)ONC(=O)/C=C/c1ccc(C(=O)NCC(=O)N[C@@H](CC(C)C)B2OC3C[C@H]4C[C@H](C4(C)C)[C@@]3(C)O2)cc1 (stereo partly drawn) [AMC-3-055]
5380			>5.58		CCNC(=O)ONC(=O)c1ccc(C(=O)NCC(=O)N[C@@H](CC(C)C)B2OC3C[C@H]4C[C@H](C4(C)C)[C@@]3(C)O2)cc1 (stereo partly drawn) [AMC-3-048]
61			0.93		CC(C)C[C@H](NC(=O)[C@H](Cc1ccccc1)NC(=O)c1ccc(/C=C/C(=O)NO)cc1)B1OC2C[C@H]3C[C@H](C3(C)C)[C@@]2(C)O1 (stereo partly drawn) [AMC-3-041]
884			>33.9		CC(C)C[C@H](NC(=O)CNC(=O)c1ccc(C(=O)NOC(=O)Nc2ccccc2)cc1)B1OC2C[C@H]3C[C@H](C3(C)C)[C@@]2(C)O1 (stereo partly drawn) [AMC-3-030]
3420			8.77		CC(C)C[C@H](NC(=O)CNC(=O)c1ccc(C(=O)NOC(=O)NCc2ccccc2)cc1)B1OC2C[C@H]3C[C@H](C3(C)C)[C@@]2(C)O1 (stereo partly drawn) [AMC-3-047]
